Reference: ChEMBL document CHEMBL5108026, “An overview on Estrogen receptors signaling and its ligands in breast cancer” (Eur J Med Chem, 2022)
Values belong to the compound of their own block, whether it stands above or below them.

Key:
[1] = target: T1, Estrogen receptor beta (Homo sapiens, UniProt Q92731); assay: Displacement of EL red from human full-length ER-beta expressed in baculovirus expression system incubated for 2 hrs by fluorescence polarization assay
[2] = test system: MCF7; assay: Antiproliferative activity against human MCF7 cells assessed as inhibition of cell growth; type: functional, cell-based
[3] = target: T1, Estrogen receptor beta; assay: Agonist activity at human ER-beta transfected in African green monkey COS-7 cells measured after 24 hrs by Steady-Glo luciferase assay; type: cell-based
[4] = target: T2, Aromatase (Rattus norvegicus, UniProt P22443); assay: Inhibition of aromatase in rat mammary tumor; type: tissue-based, Mammary gland
T2 sequence (P22443 whole entry): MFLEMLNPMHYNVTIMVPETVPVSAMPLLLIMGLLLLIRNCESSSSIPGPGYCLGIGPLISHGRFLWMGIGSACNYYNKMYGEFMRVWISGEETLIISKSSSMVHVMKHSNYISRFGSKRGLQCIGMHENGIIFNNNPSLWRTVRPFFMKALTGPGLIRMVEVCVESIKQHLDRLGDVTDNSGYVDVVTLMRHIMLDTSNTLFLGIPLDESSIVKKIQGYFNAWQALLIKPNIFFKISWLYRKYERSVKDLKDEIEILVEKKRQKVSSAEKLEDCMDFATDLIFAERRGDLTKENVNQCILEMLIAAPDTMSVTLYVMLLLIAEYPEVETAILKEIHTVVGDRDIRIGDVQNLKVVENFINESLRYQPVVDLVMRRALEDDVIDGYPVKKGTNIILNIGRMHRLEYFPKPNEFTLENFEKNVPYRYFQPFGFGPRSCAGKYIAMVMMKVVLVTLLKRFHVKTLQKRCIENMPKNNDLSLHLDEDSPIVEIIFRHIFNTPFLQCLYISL

[5] = target: T1, Estrogen receptor beta; assay: Modulation of ER-beta (unknown origin)
[6] = target: T3, Estrogen receptor (Homo sapiens, UniProt P03372); assay: Modulation of ER-alpha (unknown origin)
T3 sequence (P03372 whole entry): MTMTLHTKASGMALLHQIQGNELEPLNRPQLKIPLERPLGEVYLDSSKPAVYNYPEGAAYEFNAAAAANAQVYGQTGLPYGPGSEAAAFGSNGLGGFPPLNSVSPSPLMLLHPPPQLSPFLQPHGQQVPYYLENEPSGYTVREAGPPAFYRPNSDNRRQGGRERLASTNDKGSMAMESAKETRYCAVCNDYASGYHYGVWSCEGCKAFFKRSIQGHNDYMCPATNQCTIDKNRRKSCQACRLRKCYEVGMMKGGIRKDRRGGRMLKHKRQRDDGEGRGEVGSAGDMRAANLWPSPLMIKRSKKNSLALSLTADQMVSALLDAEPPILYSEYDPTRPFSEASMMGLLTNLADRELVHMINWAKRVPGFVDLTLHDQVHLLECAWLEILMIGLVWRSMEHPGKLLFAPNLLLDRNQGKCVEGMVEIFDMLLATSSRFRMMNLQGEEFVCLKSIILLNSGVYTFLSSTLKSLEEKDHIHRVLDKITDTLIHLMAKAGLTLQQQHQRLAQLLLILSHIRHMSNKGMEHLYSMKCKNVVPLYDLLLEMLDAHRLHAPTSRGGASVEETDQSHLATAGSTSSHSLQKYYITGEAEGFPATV

T1 sequence (Q92731 whole entry): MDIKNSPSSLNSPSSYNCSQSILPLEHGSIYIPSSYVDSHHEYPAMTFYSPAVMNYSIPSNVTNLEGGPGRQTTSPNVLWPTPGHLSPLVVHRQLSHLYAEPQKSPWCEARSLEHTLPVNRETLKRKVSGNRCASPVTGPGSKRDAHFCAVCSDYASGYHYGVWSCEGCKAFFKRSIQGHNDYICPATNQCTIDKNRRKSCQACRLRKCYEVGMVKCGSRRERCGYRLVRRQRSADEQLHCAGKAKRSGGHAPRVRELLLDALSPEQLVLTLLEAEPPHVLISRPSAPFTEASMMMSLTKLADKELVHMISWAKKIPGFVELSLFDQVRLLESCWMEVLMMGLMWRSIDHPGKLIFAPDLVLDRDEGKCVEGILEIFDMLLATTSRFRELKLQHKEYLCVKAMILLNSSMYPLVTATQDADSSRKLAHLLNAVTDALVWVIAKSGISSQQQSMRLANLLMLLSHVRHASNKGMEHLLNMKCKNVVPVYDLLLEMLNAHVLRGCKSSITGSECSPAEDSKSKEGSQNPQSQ

IC50 [1]: 5570 nM
SMILES: Oc1ccc([C@H]2COc3cc(O)ccc3C2)cc1 [AUS-131]

SMILES: C[C@]12CC[C@@H]3c4ccc(O)cc4C[C@@H](CCCCCCCCC[S+]([O-])CCCC(F)(F)C(F)(F)F)[C@H]3[C@@H]1CC[C@@H]2O (stereo partly specified) [FULVESTRANT]
IC50 [2]: 0.29 nM

SMILES: CCOC(=O)C1(C(C)=O)Cc2ccc([C@]3(O)CC[C@H]4[C@@H]5CCc6cc(O)ccc6[C@H]5CC[C@@]43C)cc2C1 (stereo partly specified)
EC50 [3]: 1.8 nM

SMILES: C[C@]12C=CC(=O)C=C1C[C@@H](Sc1ccc(N)cc1)[C@@H]1[C@@H]2CC[C@]2(C)C(=O)CC[C@@H]12
Ki [4]: 18 nM

EC50 [5]: 23 nM | EC50 [6]: 0.014 nM
SMILES: C[C@]12CC[C@@H]3c4ccc(O)cc4CC[C@H]3[C@@H]1C[C@H]1OC(=O)C[C@]12O
